Source: patent publication US10538555B2, “Macrocyclic inhibitors of the PD-1/PD-L1 and CD80(B7-1)/PD-L1 protein/protein interactions” (BRISTOL-MYERS SQUIBB COMPANY, priority 2014, dated 2020)
Where a SMILES comes first, the peptide text is derived from it. Bridges are numbered along the chain shown (N, C = ends). [ ]: non-standard residue; d: D form. ξ: configuration not given here. Trp(1-CH2COOH) = N[C@@H](Cc1cn(CC(=O)O)c2ccccc12)C(=O)O; Trp(βS-Me) = C[C@@H](c1c[nH]c2ccccc12)[C@H](N)C(=O)O; Phe(3,4-F2) = N[C@@H](Cc1ccc(F)c(F)c1)C(=O)O; ξTrp(7-aza) = NC(Cc1c[nH]c2ncccc12)C(=O)O; d(cisHyp) = O=C(O)[C@H]1C[C@@H](O)CN1; Bta = N[C@@H](Cc1csc2ccccc12)C(=O)O; Hyp = O=C(O)[C@@H]1C[C@@H](O)CN1; NMeF = CN[C@@H](Cc1ccccc1)C(=O)O; dNMeF = CN[C@H](Cc1ccccc1)C(=O)O; dHyp = O=C(O)[C@H]1C[C@H](O)CN1; NMehSer = CN[C@@H](CCO)C(=O)O; NMeNle = CCCC[C@H](NC)C(=O)O; Pip = O=C(O)[C@@H]1CCCCN1; hSer = N[C@@H](CCO)C(=O)O; NMeA = CN[C@@H](C)C(=O)O; Orn = NCCC[C@H](N)C(=O)O; Dab = NCC[C@H](N)C(=O)O; Dap = NC[C@H](N)C(=O)O; ξC = NC(CS)C(=O)O; Sar = CNCC(=O)O

Molecular target: T1, Human PD-L1/PD-1 (Homo sapiens, UniProt Q9NZQ7)
T1 construct: TVMV protease cleavage site (C); made in house; host or cells: HEK293T cells
Test: HTRF Human PD-L1/PD-1 binding assay (PD-1-Ig/PD-L1-His)
Details: PD-L1-His 10 nM, PD-1-Ig 20 nM; class symbol; read-out: HTRF Human PD-L1/PD-1 Binding Assay IC50 Range
Procedure, shortened: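 HTRF read-out (665/620 nm ratio) after 30 min equilibration with Eu-cryptate anti-Ig mAb (1 nM) and APC anti-His mAb (20 nM). Peptides preincubated 15 min with PD-L1-His (10 nM), then PD-1-Ig (20 nM) added for 15 min.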

T1 sequence (Q9NZQ7 with tags, fused parts or gaps): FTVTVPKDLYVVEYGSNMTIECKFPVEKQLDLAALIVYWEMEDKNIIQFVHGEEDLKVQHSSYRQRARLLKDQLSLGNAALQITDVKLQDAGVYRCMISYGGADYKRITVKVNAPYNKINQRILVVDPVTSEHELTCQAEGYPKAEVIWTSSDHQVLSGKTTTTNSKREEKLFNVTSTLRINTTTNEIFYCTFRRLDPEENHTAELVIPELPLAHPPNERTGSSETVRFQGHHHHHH

Row | SMILES | IC50 [nM]
1 | CCCC[C@H]1C(=O)N(C)[C@@H](CCCC)C(=O)N[C@@H](C)C(=O)N[C@H](C(=O)NCC(N)=O)CSCC(=O)N[C@@H](Cc2ccc(O)cc2)C(=O)N2CCCC[C@H]2C(=O)N[C@@H](CC(=O)O)C(=O)N2CCC[C@H]2C(=O)N[C@@H](CN)C(=O)N[C@@H](CCC(=O)O)C(=O)N2C[C@H](O)C[C@H]2C(=O)N[C@@H](Cc2c[nH]c3ccccc23)C(=O)N[C@@H](CO)C(=O)N[C@@H](Cc2csc3ccccc23)C(=O)N1C [Example 1510] ({CH2CO}-Y[Pip]DP[Dap]E[Hyp]WS[Bta][NMeNle][NMeNle]ACG-NH2; thioether N-14) | 1 to 9.9
2 | CCCC[C@H]1C(=O)N[C@@H](CC(N)=O)C(=O)N2CCC[C@H]2C(=O)N[C@@H](CO)C(=O)N[C@@H](CCO)C(=O)N2C[C@H](O)C[C@H]2C(=O)N[C@@H](Cc2c[nH]c3ccccc23)C(=O)N[C@@H](CN)C(=O)N[C@@H](Cc2c[nH]c3ccccc23)C(=O)N(C)[C@@H](C)C(=O)N(C)[C@@H](C)C(=O)N[C@@H](CCCNC(=N)N)C(=O)NC(C(=O)NCC(N)=O)CSCC(=O)N[C@@H](Cc2ccc(O)cc2)C(=O)N1C (some centres unmarked) [Example 10199] ({CH2CO}-Y[NMeNle]NPS[hSer][Hyp]W[Dap]W[NMeA][NMeA]R[ξC]G-NH2; thioether N-14) | 1000 to 10000
3 | CCCC[C@H]1C(=O)N[C@@H](CC(=O)O)C(=O)N2CCC[C@H]2C(=O)N[C@@H](Cc2c[nH]cn2)C(=O)N[C@@H](CCC(N)=O)C(=O)N2C[C@H](O)C[C@H]2C(=O)N[C@@H]([C@@H](C)c2c[nH]c3ccccc23)C(=O)N[C@@H](CO)C(=O)N[C@@H](Cc2c[nH]c3ccccc23)C(=O)N(C)[C@@H](C)C(=O)N(C)[C@@H](C)C(=O)N[C@@H](C)C(=O)N[C@H](C(=O)NCC(N)=O)CSCC(=O)N[C@@H](Cc2ccc(O)cc2)C(=O)N1C [Example 10539] ({CH2CO}-Y[NMeNle]DPHQ[Hyp][Trp(βS-Me)]SW[NMeA][NMeA]ACG-NH2; thioether N-14) | 1000 to 10000
4 | CCCC[C@H]1C(=O)N(C)[C@@H](CCCC)C(=O)N[C@@H](CCCNC(=N)N)C(=O)NC(C(=O)NCC(N)=O)CSCC(=O)N[C@@H](Cc2ccc(O)cc2)C(=O)N(C)[C@@H](C)C(=O)N[C@@H](CC(N)=O)C(=O)N2CCC[C@H]2C(=O)N[C@@H](CC(N)=O)C(=O)N[C@@H](CC(C)C)C(=O)N2C[C@H](O)C[C@H]2C(=O)N[C@@H](Cc2c[nH]c3ccccc23)C(=O)N[C@@H](CCO)C(=O)N[C@@H](Cc2csc3ccccc23)C(=O)N1C (some centres unmarked) [Example 9131] ({CH2CO}-Y[NMeA]NPNL[Hyp]W[hSer][Bta][NMeNle][NMeNle]R[ξC]G-NH2; thioether N-14) | 1 to 9.9
5 | CCCC[C@H]1C(=O)N(C)[C@@H](CCCC)C(=O)N[C@@H](CCCNC(=N)N)C(=O)NC(C(=O)NCC(N)=O)CSCC(=O)N[C@@H](Cc2ccc(O)cc2)C(=O)N(C)[C@@H](C)C(=O)N[C@@H](CC(N)=O)C(=O)N2CCC[C@H]2C(=O)N[C@@H](Cc2cnc[nH]2)C(=O)N[C@@H](CCO)C(=O)N2CCC[C@H]2C(=O)N[C@@H](Cc2c[nH]c3ccccc23)C(=O)N[C@@H](CO)C(=O)N[C@@H](Cc2csc3ccccc23)C(=O)N1C (some centres unmarked) [Example 9126] ({CH2CO}-Y[NMeA]NPH[hSer]PWS[Bta][NMeNle][NMeNle]R[ξC]G-NH2; thioether N-14) | 1 to 9.9
6 | COCC[C@H]1C(=O)N2C[C@@H](O)C[C@@H]2C(=O)N[C@@H](CC(=O)O)C(=O)N[C@@H](C(C)C)C(=O)N(C)[C@H](Cc2ccccc2)C(=O)N[C@@H](Cc2ccc(OC)cc2)C(=O)N2C[C@@H](O)C[C@@H]2C(=O)N[C@@H](Cc2c[nH]c3ccccc23)C(=O)N[C@@H](Cc2ccc(O)cc2)C(=O)N[C@@H](CCCN)C(=O)N[C@H](C(=O)NCC(N)=O)CSCC(=O)N[C@@H](Cc2ccc(F)c(F)c2)C(=O)N(C)[C@@H](Cc2ccccc2)C(=O)N1C [Example 9240] ({CH2CO}-[Phe(3,4-F2)][NMeF][NMehSer](Me)[dHyp]DV[dNMeF]Y(Me)[dHyp]WY[Orn]CG-NH2; thioether N-13) | 1 to 9.9
7 | CCCC[C@H]1C(=O)N(C)[C@@H](CCCC)C(=O)N[C@@H](CO)C(=O)N[C@H](C(=O)NCC(N)=O)CSCC(=O)N[C@@H](Cc2ccc(O)cc2)C(=O)N(C)[C@@H](C)C(=O)N[C@@H](CC(=O)O)C(=O)N2CCC[C@H]2C(=O)N[C@@H](CO)C(=O)N[C@@H](CC(C)C)C(=O)N2C[C@H](O)C[C@H]2C(=O)N[C@@H](Cc2c[nH]c3ccccc23)C(=O)N[C@@H](CO)C(=O)N[C@@H](Cc2cn(CC(=O)O)c3ccccc23)C(=O)N1C [Example 6274] ({CH2CO}-Y[NMeA]DPSL[Hyp]WS[Trp(1-CH2COOH)][NMeNle][NMeNle]SCG-NH2; thioether N-14) | 1 to 9.9
8 | CCCC[C@H]1C(=O)N(C)[C@@H](CCCC)C(=O)N[C@@H](CN)C(=O)N[C@H](C(=O)NCC(N)=O)CSCC(=O)N[C@@H](Cc2ccc(O)cc2)C(=O)N(C)[C@@H](C)C(=O)N[C@@H](CC(N)=O)C(=O)N2CCC[C@H]2C(=O)N[C@@H](CN)C(=O)N[C@@H](CC(C)C)C(=O)N2C[C@H](O)C[C@H]2C(=O)N[C@@H](Cc2c[nH]c3ccccc23)C(=O)N[C@@H](CCN)C(=O)N[C@@H](Cc2cn(CC(=O)O)c3ccccc23)C(=O)N1C [Example 6303] ({CH2CO}-Y[NMeA]NP[Dap]L[Hyp]W[Dab][Trp(1-CH2COOH)][NMeNle][NMeNle][Dap]CG-NH2; thioether N-14) | 1 to 9.9

Second part, the compound after the results:

Row | IC50 [nM] | SMILES
9 | 1 to 9.9 | CCCC[C@H]1C(=O)N2C[C@H](O)C[C@@H]2C(=O)N[C@@H](CC(=O)O)C(=O)N[C@@H](C(C)C)C(=O)N(C)[C@@H](Cc2ccccc2)C(=O)N[C@@H](CCCCN)C(=O)N2C[C@H](O)C[C@@H]2C(=O)N[C@@H](Cc2c[nH]c3ccccc23)C(=O)N[C@@H](Cc2ccc(O)cc2)C(=O)N[C@@H](CC(C)C)C(=O)N[C@H](C(=O)NCC(N)=O)CSCC(=O)N[C@@H](Cc2ccc(F)c(F)c2)C(=O)N(C)[C@@H](Cc2ccccc2)C(=O)N1C [Example 9294] ({CH2CO}-[Phe(3,4-F2)][NMeF][NMeNle][d(cisHyp)]DV[NMeF]K[d(cisHyp)]WYLCG-NH2; thioether N-13)
10 | 1 to 9.9 | CCCC[C@H]1C(=O)N2C[C@H](O)C[C@@H]2C(=O)N[C@@H](CC(=O)O)C(=O)N[C@@H](C(C)C)C(=O)N(C)[C@@H](Cc2ccccc2)C(=O)N[C@@H](CCCCN)C(=O)N2C[C@H](O)C[C@@H]2C(=O)N[C@@H](Cc2c[nH]c3ccccc23)C(=O)N[C@@H](Cc2ccc(O)cc2)C(=O)N[C@@H](CC(C)C)C(=O)N[C@H](C(=O)NCC(N)=O)CSCC(=O)N[C@@H](Cc2ccc(F)c(F)c2)C(=O)N(C)[C@@H](Cc2ccccc2)C(=O)N1C [Example 9318] ({CH2CO}-[Phe(3,4-F2)][NMeF][NMeNle][d(cisHyp)]DV[NMeF]K[d(cisHyp)]WYLCG-NH2; thioether N-13)
11 | 10 to 99.9 | CCCC[C@H]1C(=O)N(C)CC(=O)N[C@@H](CC(=O)O)C(=O)N[C@@H](C(C)C)C(=O)N(C)[C@@H](Cc2ccccc2)C(=O)N[C@@H](Cc2ccc(O)cc2)C(=O)N(C)CC(=O)NC(Cc2c[nH]c3ncccc23)C(=O)N[C@@H](Cc2ccc(O)cc2)C(=O)N[C@@H](CC(C)C)C(=O)N[C@H](C(=O)NCC(N)=O)CSCC(=O)N[C@@H](Cc2ccccc2)C(=O)N(C)[C@@H](Cc2ccccc2)C(=O)N1C (some centres unmarked) [Example 3239] ({CH2CO}-F[NMeF][NMeNle][Sar]DV[NMeF]Y[Sar][ξTrp(7-aza)]YLCG-NH2; thioether N-13)
